The values that follow come from US20250313546A1, “NUCLEIC ACID BINDERS” (UNIVERSITY OF STRATHCLYDE, priority 2022, published 2025).

Assay [1] deals with Staphylococcus aureus (ATCC 43300). Kind of assay: Antibacterial MIC, broth microdilution (CLSI). The format is cell-based. To be noted: for MIC80: Staphylococcus aureus, ATCC43300, read-out: MIC80 S. aureus; for S. aureus Selectivity Indices, Group: Alkyl Amidines and NH Pyrroles. Background: In broth dilution the organism is exposed to a series of concentrations in liquid medium.

In assay [2] the test system is Enterococcus faecalis (ATCC 51299). Kind of assay: Antibacterial MIC, broth microdilution (CLSI). It counts as cell-based. The conditions noted are these: for MIC80: Enterococcus faecalis, ATCC51299, read-out: MIC80 E. faecalis; for E. faecalis Selectivity Indices, Group: SI, IC50 (μM)/MIC80 (μM), HEK293 cytotoxicity, Alkyl Amidines and NH Pyrroles.
The subject of assay [3] is Escherichia coli (ATCC 25922). Description: Antibacterial MIC, broth microdilution (CLSI). The format is cell-based. To be noted: Escherichia coli, ATCC25922; read-out: MIC80 E. coli.
Another assay deals with T. vaginalis. Description: Trichomonas resorufin assay. To be noted: for IC50: Trichomonas vaginalis, read-out: IC50 T. vaginalis; for T. vaginalis Selectivity Indices, Group: SI, IC50 (μM)/IC50 (μM), HEK293 cytotoxicity, Alkyl Amidines and NH Pyrroles. The format is cell-based.
For assay [4], the system named is Genomic double stranded DNA (salmon). Kind of assay: Fluorescence intercalator displacement (FID) assay, SYBR-safe probe. To be noted: 20 μM compound, 30° C., lower % = stronger binding. The essentials:
(§1)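 Compound at 20 μM mixed with 3.76 ng/mL polyAU dsRNA or salmon genomic dsDNA and 12500-fold diluted SybrSafe in 1 mM phosphate buffer pH 7.4, then heated to 30 °C and fluorescence read. Reduction is expressed as normalised %, with nucleic acid plus probe as maximum and probe alone as minimum.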

In assay [5] the test system is PolyAU double stranded RNA. The description is as above. The conditions noted are these: 20 μM compound, 30° C., lower % = stronger binding. A digest of the protocol: as §1
Another assay relates to C. neoformans (F10025). The conditions noted are these: Cryptococcus neoformans, read-out: MIC99 C. neoformans.
The subject of assay [6] is A. fumigatus A1160 (MFIG001). The conditions noted are these: Aspergillus fumigatus, read-out: MIC99 A. fumigatus A1160.
Assay [7] deals with Rhizopus arrhizus (NEQAS12.35321). To be noted: read-out: MIC99 Rhizopus arrhizus.
Another assay deals with Candida auris (H.17.157). To be noted: for MIC99: Candidozyma auris, read-out: MIC99 Candida auris.
For assay [8], the system named is Candida glabrata (ACPF3309). The conditions noted are these: for MIC99: Nakaseomyces glabratus, read-out: MIC99 Candida glabrata; for C. glabrata Selectivity Indices, Group: SI, IC50 (μM)/MIC99 (μg/mL), HEK293 cytotoxicity, Alkyl Amidines and NH Pyrroles.
In assay [9] the test system is SARS-CoV-2 (hCoV-19/Australia/VIC01/2020). Kind of assay: SARS-CoV-2 microplaque inhibition assay in Vero-E6 cells. It counts as cell-based. To be noted: for SARS-CoV-2 Selectivity Indices, Group: SI, IC50 (μM)/IC50 (μM), HEK293 cytotoxicity, Alkyl Amidines and NH Pyrroles.
The mark [10] stands for this setting: SI, IC50 (μM)/MIC80 (μM), HEK293 cytotoxicity.

In brackets after ≈: the same amount, converted by molar mass. Like-named read-outs stand apart in the source and are kept apart here. A value given as a limit tells only on which side of the number the result lay.

A word on the MIC80: it is the lowest concentration that inhibits either 80% of growth or 80% of the strains tested, depending on the study. Broadly, the IC50 is the concentration that inhibits the measured activity by half. As usually defined, the MIC99 is an inhibitory concentration at the 99% level, which refers to growth in some studies and to a panel of isolates in others.

Consider `CCCCCNC(=N)CCNC(=O)c1cc(NC(=O)c2cc(NC(=O)c3ccc(/C=C/c4cnc5ccccc5c4)cc3)cn2C)cn1C` [Ia35, (E)-N-(3-imino-3-(pentylamino)propyl)-1-methyl-4-(1-methyl-4-(4-(2-(quinolin-3-yl)vinyl)benzamido)-1H-pyrrole-2-carboxamido)-1H-pyrrole-2-carboxamide], for which the results for the MIC80 in [1], in [2] and in assay [3] were less than 5 µM, 5 to 25 µM (≈ 3.29 to 16.5 µg/mL) and more than 100 µM, respectively. Besides, the IC50 in the assay on T. vaginalis fell in the range of 1000 to 5000 nM. In addition, the “% Normalised Fluorescence with gDNA” value in assay [4] is given as 21%. Also, the “% Normalised Fluorescence with polyAU RNA” value in assay [5] is listed as 3%. Also, the MIC99 in the assay with C. neoformans (F10025) was 25 to 50 µg/mL (≈ 37.9 to 75.9 µM); in assay [6] it was more than 50 µg/mL; in [7], more than 50 µg/mL; with Candida auris (H.17.157) it was more than 50 µg/mL; in [8] it was 5 to 25 µg/mL (≈ 7.59 to 37.9 µM).
Consider `Cn1cc(NC(=O)c2cc(NC(=O)c3ccc(/C=C/c4cnc5ccccc5c4)cc3)cn2C)cc1C(=O)NCCC(=N)N1CCCCC1` [Ib1, (E)-N-(3-imino-3-(piperidin-1-yl)propyl)-1-methyl-4-(1-methyl-4-(4-(2-(quinolin-3-yl)vinyl)benzamido)-1H-pyrrole-2-carboxamido)-1H-pyrrole-2-carboxamide], for which the “S. aureus Selectivity Indices, Group” value in [1] (setting [10]) is reported as “D (D: SI > 10)”. Moreover, in assay [1] (SI, IC50 (μM)/MIC80 (μM), HEK293 cytotoxicity, numeric value), the “S. aureus Selectivity Index (SI)” value is recorded as 11. The MIC80 in [1] is less than 5 µM; in assay [2], less than 5 µM; in assay [3], more than 100 µM. For the same compound, in the assay on T. vaginalis (resorufin assay), the IC50 was in the range of 1000 to 5000 nM. For the same compound, in assay [4], the “% Normalised Fluorescence with gDNA” value is recorded as 23%. The “% Normalised Fluorescence with polyAU RNA” value in assay [5] came to 12%. The MIC99 was 5 to 25 µg/mL (≈ 7.61 to 38.1 µM) in the assay on C. neoformans (F10025); 5 to 25 µg/mL (≈ 7.61 to 38.1 µM) in [6]; 25 to 50 µg/mL (≈ 38.1 to 76.1 µM) in [7]; more than 50 µg/mL in the assay with Candida auris (H.17.157); less than 5 µg/mL in assay [8].
In the case of `[H]/N=C(\CCNC(=O)c1cc(NC(=O)c2cc(NC(=O)c3ccc(C=Cc4ccc5nonc5c4)cc3)cn2C)cn1C)N1CCCCC1` [Ib2, (E)-4-(4-(2-(benzo[c][1,2,5]oxadiazol-5-yl)vinyl)benzamido)-N-(5-((3-imino-3-(piperidin-1-yl)propyl)carbamoyl)-1-methyl-1H-pyrrol-3-yl)-1-methyl-1H-pyrrole-2-carboxamide], the MIC80 in [1] is less than 5 µM; in assay [2] it was less than 5 µM; in assay [3], more than 100 µM. Further, in the assay on T. vaginalis, the IC50 is less than 1000 nM. Moreover, the “% Normalised Fluorescence with gDNA” value in assay [4] is reported as 12%. The “% Normalised Fluorescence with polyAU RNA” value in assay [5] is given as 3%. Besides, the MIC99 with C. neoformans (F10025) is 5 to 25 µg/mL (≈ 7.72 to 38.6 µM); in assay [6], 5 to 25 µg/mL (≈ 7.72 to 38.6 µM); in [7], 5 to 25 µg/mL (≈ 7.72 to 38.6 µM); in the assay on Candida auris (H.17.157), more than 50 µg/mL; in assay [8] it was less than 5 µg/mL.
In the case of `COc1cccc(/C=C/c2ccc(C(=O)Nc3cc(C(=O)Nc4cc(C(=O)NCCN5CCOCC5)n(C)c4)n(C)c3)cc2)c1` [Ref-1, reference compound], the “S. aureus Selectivity Indices, Group” value in assay [1] (setting [10]) is listed as “A (Group A: SI < 3)”. For the same compound, in [2], the “E. faecalis Selectivity Indices, Group” value is listed as “A (Group A: SI < 3)”. In addition, the “T. vaginalis Selectivity Indices, Group” value in the assay on T. vaginalis is on record as “A (Group A: SI < 8)”. For the same compound, in assay [9], the “SARS-CoV-2 Selectivity Indices, Group” value was “A (Group A: SI < 4.1)”. Moreover, in the assay on Candida auris (H.17.157) (SI, IC50 (μM)/MIC99 (μg/mL), HEK293 cytotoxicity, Alkyl Amidines and NH Pyrroles), the “C. auris Selectivity Indices, Group” value is given as “A (Group A: SI < 0.4)”. In assay [8], the “C. glabrata Selectivity Indices, Group” value is “A (Group A: SI < 12)”.
In the case of `COc1cccc(/C=C/c2ccc(C(=O)Nc3cc(C(=O)Nc4cc(C(=O)NCCC(=N)N)n(C)c4)n(C)c3)cc2)c1` [Ref-5, reference compound], the “S. aureus Selectivity Indices, Group” value in [1] (setting [10]) was “A (Group A: SI < 3)”. The “E. faecalis Selectivity Indices, Group” value in assay [2] is recorded as “A (Group A: SI < 3)”. Moreover, in the assay on T. vaginalis, the “T. vaginalis Selectivity Indices, Group” value is on record as “A (Group A: SI < 8)”. Also, the “SARS-CoV-2 Selectivity Indices, Group” value in assay [9] is “A (Group A: SI < 4.1)”. Further, in assay [8], the “C. glabrata Selectivity Indices, Group” value is “A (Group A: SI < 12)”.
Turning to `CCN(CC)CCCC(C)Nc1ccnc2cc(Cl)ccc12` (centres unmarked) [chloroquine diphosphate, reference compound], in assay [9] (Severe acute respiratory syndrome coronavirus 2, Vero C1008, read-out: IC50 SARS-CoV-2 infectious viral foci), the IC50 is 641 nM.
